Experiment [1] deals with HCV replicon in Huh7 cells. Put plainly: HCV replicon cell-based assay (FRET). The arrangement: species or system HCV strain 1b. The note with it: Hepatitis C virus, Huh-7, 96 h, 4 days, read-out: Activity Range EC50. The source says: An HCV replicon whole cell system was established as described by Lohmann V, Korner F, Koch J, Herian U, Theilmann L, Bartenschlager R., Science 285(5424):110–3 (1999). This system enabled us to evaluate the effects of our HCV Protease compounds on HCV RNA replication. Briefly, using the HCV strain 1b sequence described in the Lohmann paper (Assession number:AJ238799), an HCV cDNA was generated encoding the 5′ internal ribosome entry site (IRES), the neomycin resistance gene, the EMCV (encephalomyocarditis viurs)-IRES and the HCV nonstructural proteins, NS3–NS5B, and 3′ non-translated region (NTR). In vitro transcripts of the cDNA were transfected into the human hepatoma cell line, Huh7. […] Resulting cell lines were characterized for positive and negative strand RNA production and protein production over time.
Huh7 cells, constitutively expressing the HCV replicon, were grown in Dulbecco's Modified Eagle Media (DMEM) containing 10% Fetal calf serum (FCS) and 1 mg/ml G418 (Gibco-BRL). Cells were seeded the night before (1.5×10^4 cells/well) in 96-well tissue-culture sterile plates. Compound and no compound controls were prepared in DMEM containing 4% FCS, 1:100 Penicillin/Streptomysin, 1:100 L-glutamine and 5% DMSO in the dilution plate (0.5% DMSO final concentration in the assay). Compound/DMSO mixes were added to the cells and incubated for 4 days at 37° C. After 4 days, plates were rinsed thoroughly with Phosphate-Buffered Saline (PBS) (3 times 150 μl). The cells were lysed with 25 μl of a lysis assay reagent containing the FRET peptide (RET S1, as described for the in vitro enzyme assay). The lysis assay reagent was made from 5× cell Luciferase cell culture lysis reagent (Promega #E153A) diluted to 1× with distilled water, NaCl added to 150 mM final, the FRET peptide diluted to 10 μM final from a 2 mM stock in 100% DMSO. The plate was then placed into the Cytofluor 4000 instrument which had been set to 340 nm excitation/490 nm emission, automatic mode for 21 cycles and the plate read in a kinetic mode. EC50 determinations were carried out as described for the IC50 determinations. […]
The percentage inhibition was calculated using the formula below: […]
The values were graphed and analyzed using XLFit to obtain the EC50 value.
A general note: A replicon is a self-replicating genome or part of one, used to study replication in cells.

Experiment [2] addresses T1, HCV NS3/4A protease complex (UniProt P27958, C1454S/C1711G, species not given).
T1 construct: fused on or other part: Three-lysine solubilising tail at the C-terminus of NS4A
In words: Recombinant HCV NS3/4A protease complex FRET peptide assay (strain not stated). The format is biochemical. The note with it: NS3/4A protease enzyme assay, read-out: Activity Range IC50. From the text: The purpose of this in vitro assay was to measure the inhibition of HCV NS3 protease complexes, derived from the BMS strain, H77 strain or J416S strain, as described below, by compounds of the present invention. This assay provides an indication of how effective compounds of the present invention would be in inhibiting HCV proteolytic activity.
Serum from an HCV-infected patient was obtained from Dr. T. Wright, San Francisco Hospital. An engineered full-length cDNA (compliment deoxyribonucleic acid) template of the HCV genome (BMS strain) was constructed from DNA fragments obtained by reverse transcription-PCR (RT-PCR) of serum RNA (ribonucleic acid) and using primers selected on the basis of homology between other genotype 1a strains. From the determination of the entire genome sequence, a genotype 1a was assigned to the HCV isolate according to the classification of Simmonds et al. (See P Simmonds, K A Rose, S Graham, S W Chan, F McOmish, B C Dow, E A Follett, P L Yap and H Marsden, J. Clin. Microbiol., 31(6), 1493–1503 (1993)). […] The infectious clones, H77 (1a genotype) and J4L6S (1b genotype) were obtained from R. Purcell (NIH) and the sequences are published in Genbank (AAB67036, see Yanagi, M., Purcell, R. H., Emerson, S. U. and Bukh, J. Proc. Natl. Acad. Sci. U.S.A. 94(16), 8738–8743 (1997); AF054247, see Yanagi, M., St Claire, M., Shapiro, M., Emerson, S. U., Purcell, R. H. and Bukh, J, Virology 244 (1), 161–172. (1998)).
The H77 and J4L6S strains were used for production of recombinant NS3/4A protease complexes. DNA encoding the recombinant HCV NS3/4A protease complex (amino acids 1027 to 1711) for these strains were manipulated as described by P. Gallinari et al. (see Gallinari P, Paolini C, Brennan D, Nardi C, Steinkuhler C, De Francesco R. Biochemistry. 38(17):5620–32, (1999)). Briefly, a three-lysine solubilizing tail was added at the 3′-end of the NS4A coding region. The cysteine in the P1 position of the NS4A–NS4B cleavage site (amino acid 1711) was changed to a glycine to avoid the proteolytic cleavage of the lysine tag. Furthermore, a cysteine to serine mutation was introduced by PCR at amino acid position 1454 to prevent the autolytic cleavage in the NS3 helicase domain. The variant DNA fragment was cloned in the pET21b bacterial expression vector (Novagen) and the NS3/4A complex was expressed in Escherichia. coli strain BL21 (DE3) (Invitrogen) following the protocol described by P. Gallinari et al. (see Gallinari P, Brennan D, Nardi C, Brunetti M, Tomei L, Steinkuhler C, De Francesco R., J Virol. 72(8):6758–69 (1998)) with modifications. Briefly, the NS3/4A protease complex expression was induced with 0.5 millimolar (mM) Isopropyl β-D-1-thiogalactopyranoside (IPTG) for 22 hours (h) at 20° C. A typical fermentation (1 Liter (L)) yielded approximately 10 grams (g) of wet cell paste. The cells were resuspended in lysis buffer (10 mL/g) consisting of 25 mM N-(2-Hydroxyethyl)Piperazine-N′-(2-Ethane Sulfonic acid) (HEPES), pH 7.5, 20% glycerol, 500 mM Sodium Chloride (NaCl), 0.5% Triton X-100, 1 microgram/milliliter (“μg/mL”) lysozyme, 5 mM Magnesium Chloride (MgCl2), 1 μg/ml Dnasel, 5 mM β-Mercaptoethanol (βME), Protease inhibitor—Ethylenediamine Tetraacetic acid (EDTA) free (Roche), homogenized and incubated for 20 minutes (min) at 4° C. The homogenate was sonicated and clarified by ultra-centrifugation at 235000 g for 1 h at 4° C. Imidazole was added to the supernatant to a final concentration of 15 mM and the pH adjusted to 8.0. The crude protein extract was loaded on a Nickel—Nitrilotriacetic acid (Ni-NTA) column pre-equilibrated with buffer B (25 mM HEPES, pH 8.0, 20% glycerol, 500 mM NaCl, 0.5% Triton X-100, 15 mM imidazole, 5 mM βME). The sample was loaded at a flow rate of 1 mL/min. The column was washed with 15 column volumes of buffer C (same as buffer B except with 0.2% Triton X-100). The protein was eluted with 5 column volumes of buffer D (same as buffer C except with 200 mM Imidazole). […]

As to `C=CC1C[C@]1(NC(=O)[C@@H]1C[C@@H](Oc2nc(-c3ccncc3)cc3ccccc23)CN1C(=O)[C@@H](NC(=O)OC(C)(C)C)C(C)(C)C)C(=O)NS(=O)(=O)N(C)C` (stereo partly shown) [Compound 23], in experiment [1], the EC50 (as a rule, the concentration needed to bring the measured effect to its halfway point) was below 150 nM. Moreover, the IC50 (usually the midpoint of a concentration-inhibition curve) in experiment [2] is below 150 nM.
In the case of `C=CC1CC1(NC(=O)[C@@H]1C[C@@H](Oc2cc(-c3ccccc3)nc3cc(OC)ccc23)CN1C(=O)[C@@H](NC(=O)OC)C(C)(C)C)C(=O)NS(=O)(=O)N1CCCC1` (mixture of isomers) [Compound 8], the EC50 in experiment [1] fell in the range of 150 to 1500 nM. The concentration for half-maximal inhibition (IC50) in experiment [2] was below 150 nM.

The values above are taken from patent US7132504B2, “Hepatitis C virus inhibitors” (Bristol-Myers Squibb Company, priority 2003, dated 2006).
